The record followed here is PubChem BioAssay AID256 (DTP/NCI, 2004).

This test concerns CD2F1 mice, L1210 leukemia ip, survival T/C. Nature of the test: NCI In Vivo Anticancer Drug Screen. Data for tumor model L1210 Leukemia (intraperitoneal) in CD2F1 (CDF1) mice. Conditions: higher = longer survival. The procedure, abridged:
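In this screen, transplantable tumors were grown in mice given either the compound or its vehicle. Results were expressed as the treated measurement relative to the control measurement.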

Where [1] appears, read: endpoint: mean survival time, dose: 100.0 mg/kg/injection, schedule: Q04DX003 (ip), vehicle: saline with Tween-80.
Setting [2] is: endpoint: mean survival time, dose: 200.0 mg/kg/injection, schedule: Q04DX003 (ip), vehicle: saline with Tween-80.
Where [3] appears, read: endpoint: mean survival time, dose: 400.0 mg/kg/injection, schedule: Q04DX003 (ip), vehicle: saline with Tween-80.
The mark [4] stands for this setting: endpoint: mean survival time, dose: 25.0 mg/kg/injection, schedule: Q04DX003 (ip), vehicle: saline with Tween-80.
Where [5] appears, read: endpoint: mean survival time, dose: 100.0 mg/kg/injection, schedule: Q01DX009 (ip), vehicle: saline with Tween-80.
[6] abbreviates: endpoint: mean survival time, dose: 200.0 mg/kg/injection, schedule: Q01DX009 (ip), vehicle: saline with Tween-80.
The mark [7] stands for this setting: endpoint: mean survival time, dose: 400.0 mg/kg/injection, schedule: Q01DX009 (ip), vehicle: saline with Tween-80.
The mark [8] stands for this setting: endpoint: mean survival time, dose: 50.0 mg/kg/injection, schedule: Q01DX009 (ip), vehicle: saline with Tween-80.
[9] abbreviates: endpoint: mean survival time, dose: 50.0 mg/kg/injection, schedule: Q04DX002 (ip), vehicle: saline with Tween-80.
[10] abbreviates: endpoint: mean survival time, dose: 100.0 mg/kg/injection, schedule: Q04DX002 (ip), vehicle: saline with Tween-80.
Setting [11] is: endpoint: mean survival time, dose: 200.0 mg/kg/injection, schedule: Q04DX002 (ip), vehicle: saline with Tween-80.
The mark [12] stands for this setting: endpoint: mean survival time, dose: 25.0 mg/kg/injection, schedule: Q04DX002 (ip), vehicle: saline with Tween-80.
The mark [13] stands for this setting: endpoint: mean survival time, dose: 400.0 mg/kg/injection, schedule: Q04DX002 (ip), vehicle: saline with Tween-80.

Values joined by “and” are separate entries in the source; they are usually repeats but may differ in a detail not shown here. Equal entries are not always repeated. Inconclusive results and toxic doses are left out.

On to `Fc1cc(F)c(F)c(Oc2c(F)c(F)c(-c3c(F)c(F)c(F)c(F)c3F)c(F)c2F)c1F`, for which the T/C by setting is: under setting [1], 100 % of control; under setting [2], 91 % of control; under setting [3], 91 % of control.
As for `CCCC1CC[N-]CC1.CCCC1CC[N-]CC1.CCCC1CC[N-]CC1.CCCC1CC[N-]CC1.[Cl][Rh][Cl]`, the T/C under setting [4] is 90 % of control.
Consider `CCCCCCCCC/C(=N\Nc1ccc([N+](=O)[O-])cc1[N+](=O)[O-])c1ccccc1`, for which the T/C reads like this: under setting [5], 97 % of control; under setting [6], 87 % of control; under setting [7], 94 % of control.
On to `CCOC(=O)C1C(C(=O)OCC)C(C)(C)C1N(C)C` (configuration not stated), for which the T/C is, setting by setting: under setting [8], 107 % of control; under setting [5], 98 % of control; under setting [6], 98 % of control.
Regarding `[Cl][Pt+2][Cl].[NH-]C(C(=O)OCc1ccccc1)c1ccccc1.[NH-]C(C(=O)OCc1ccccc1)c1ccccc1` (configuration not stated), the T/C is 103 % of control (endpoint: median survival time, dose: 3.12 mg/kg/injection, schedule: Q04DX003 (ip), vehicle: saline); 109 % of control (endpoint: median survival time, dose: 6.25 mg/kg/injection, schedule: Q04DX003 (ip), vehicle: saline); 98 % of control (endpoint: median survival time, dose: 12.5 mg/kg/injection, schedule: Q04DX003 (ip), vehicle: saline); 101 % of control (endpoint: median survival time, dose: 25.0 mg/kg/injection, schedule: Q04DX003 (ip), vehicle: saline); 109 % of control (endpoint: median survival time, dose: 50.0 mg/kg/injection, schedule: Q04DX003 (ip), vehicle: saline); 109 % of control (endpoint: median survival time, dose: 100.0 mg/kg/injection, schedule: Q04DX003 (ip), vehicle: saline). Also, the T/C (endpoint: median survival time, dose: 200.0 mg/kg/injection, schedule: Q04DX003 (ip), vehicle: saline) is 111 % of control.
Regarding `CCc1ccc(NC(=O)c2cccc(Cl)c2)cc1`, the T/C under setting [5] was 93 % of control; the T/C under setting [1] is 95 % of control; the T/C under setting [6] is 109 % of control; the T/C under setting [2] is 98 % of control; the T/C under setting [7] is 98 % of control; the T/C under setting [3] is 98 % of control.
As to `CC(=O)C1CCC2C3CCC4=CC(=O)CC4(C)C3CCC12C` (configuration not stated), the T/C is 113 % of control under setting [1] and 124 % of control under setting [2].
Consider `CC1CCCNC1` (configuration not stated), for which the T/C is 97 % of control under setting [1] and 93 % of control under setting [3].
On to `O=C(O)CNCNCC(=O)O`, for which the T/C reads like this: (endpoint: mean survival time, dose: 100.0 mg/kg/injection, schedule: Q04DX002 (ip), vehicle: saline) 90 % of control; (endpoint: mean survival time, dose: 200.0 mg/kg/injection, schedule: Q04DX002 (ip), vehicle: saline) 86 % of control.
`CC1CCOC(c2ccccc2)O1` (configuration not stated): the T/C is 102 % of control under setting [9], 94 % of control under setting [10] and 97 % of control under setting [11].
With `CC1([CH2][Hg][Cl])Cc2ccccc2O1` (configuration not stated), the T/C (endpoint: mean survival time, dose: 1.56 mg/kg/injection, schedule: Q01DX009 (ip), vehicle: saline with Tween-80) is 91 % of control; the T/C (endpoint: mean survival time, dose: 3.13 mg/kg/injection, schedule: Q01DX009 (ip), vehicle: saline with Tween-80) was 94 % of control; the T/C (endpoint: mean survival time, dose: 6.25 mg/kg/injection, schedule: Q01DX009 (ip), vehicle: saline with Tween-80) is 101 % of control.
With `O=C(Nc1ccc(Cl)c(Cl)c1)C(Cl)Cl`, the T/C is, setting by setting: (endpoint: mean survival time, dose: 12.5 mg/kg/injection, schedule: Q01DX009 (ip), vehicle: saline with Tween-80) 95 % of control; (endpoint: mean survival time, dose: 25.0 mg/kg/injection, schedule: Q01DX009 (ip), vehicle: saline with Tween-80) 101 % of control; under setting [8], 107 % of control.
As to `Cc1ccc(NC(=O)OCCOc2ccc(Cl)cc2)cc1[N+](=O)[O-]`, the T/C is 96 % of control under setting [8], 88 % of control under setting [5] and 88 % of control under setting [6].
For the molecule `c1cc2c(c(NC3=NCCCO3)c1)CCCC2`, the T/C is, setting by setting: (endpoint: mean survival time, dose: 12.5 mg/kg/injection, schedule: Q04DX003 (ip), vehicle: saline with Tween-80) 97 % of control; under setting [4], 106 % of control; (endpoint: mean survival time, dose: 50.0 mg/kg/injection, schedule: Q04DX003 (ip), vehicle: saline with Tween-80) 101 % of control.
In the case of `CC1(O)CCC(C)(O)CC1` (configuration not stated), the T/C reads like this: under setting [12], 107 % of control and 103 % of control; under setting [9], 95 % of control and 98 % of control; under setting [10], 107 % of control and 98 % of control; under setting [11], 103 % of control.
As for `O=C1NCC(c2ccccc2)(C2CC2)O1` (configuration not stated), the T/C reads like this: under setting [10], 100 % of control; under setting [11], 100 % of control; under setting [13], 100 % of control.
Turning to `CCC(=O)OCCNc1cc(C(N)=O)c([N+](=O)[O-])cc1[N+](=O)[O-]`, the T/C runs as follows: (endpoint: mean survival time, dose: 100.0 mg/kg/injection, schedule: Q01DX001 (ip), vehicle: saline with Tween-80) 105 % of control; (endpoint: mean survival time, dose: 200.0 mg/kg/injection, schedule: Q01DX001 (ip), vehicle: saline with Tween-80) 92 % of control; (endpoint: mean survival time, dose: 400.0 mg/kg/injection, schedule: Q01DX001 (ip), vehicle: saline with Tween-80) 97 % of control.
Regarding `CN(C)CC(=O)Nc1cc(Cl)ccc1Oc1ccc(Cl)cc1`, the T/C by setting is: under setting [5], 103 % of control; under setting [6], 100 % of control; under setting [7], 105 % of control.
With `CN(Cc1cnc2nc(N)nc(N)c2n1)c1ccc(C(=O)NC(CCC(=O)NC(CCC(=O)O)C(=O)O)C(=O)O)cc1` (configuration not stated), the T/C is, setting by setting: (endpoint: mean survival time, dose: 2.5 mg/kg/injection, schedule: Q01DX009 (ip), vehicle: sodium bicarbonate) 165 % of control; (endpoint: mean survival time, dose: 5.0 mg/kg/injection, schedule: Q01DX009 (ip), vehicle: sodium bicarbonate) 119 % of control; (endpoint: mean survival time, dose: 10.0 mg/kg/injection, schedule: Q01DX009 (ip), vehicle: sodium bicarbonate) 89 % of control.
In the case of `NC(=O)C1(C(N)=O)CCCC1`, the T/C (endpoint: mean survival time, dose: 75.0 mg/kg/injection, schedule: Q04DX002 (ip), vehicle: saline with Tween-80) was 112 % of control; the T/C (endpoint: mean survival time, dose: 150.0 mg/kg/injection, schedule: Q04DX002 (ip), vehicle: saline with Tween-80) is 96 % of control; the T/C (endpoint: mean survival time, dose: 300.0 mg/kg/injection, schedule: Q04DX002 (ip), vehicle: saline with Tween-80) was 96 % of control.
Turning to `C=CC1=NC(C)(C)CC(C)O1` (configuration not stated), the T/C reads like this: (endpoint: mean survival time, dose: 0.78 mg/kg/injection, schedule: Q01DX009 (ip), vehicle: water) 104 % of control; (endpoint: mean survival time, dose: 1.56 mg/kg/injection, schedule: Q01DX009 (ip), vehicle: water) 102 % of control; (endpoint: mean survival time, dose: 3.13 mg/kg/injection, schedule: Q01DX009 (ip), vehicle: water) 105 % of control; (endpoint: mean survival time, dose: 6.25 mg/kg/injection, schedule: Q01DX009 (ip), vehicle: water) 104 % of control; (endpoint: mean survival time, dose: 12.5 mg/kg/injection, schedule: Q01DX009 (ip), vehicle: water) 100 % of control.
As to `CN(C)c1ccc(-c2nc3ccccc3s2)cc1`, the T/C was 106 % of control (endpoint: mean survival time, dose: 50.0 mg/kg/injection, schedule: Q01DX009 (ip), vehicle: Klucel (hydroxypropylcellulose) (HPC)); 96 % of control (endpoint: mean survival time, dose: 100.0 mg/kg/injection, schedule: Q01DX009 (ip), vehicle: Klucel (hydroxypropylcellulose) (HPC)); 98 % of control (endpoint: mean survival time, dose: 200.0 mg/kg/injection, schedule: Q01DX009 (ip), vehicle: Klucel (hydroxypropylcellulose) (HPC)).
In the case of `Nc1ncnc2nc(-c3ccccc3)[nH]c12`, the T/C reads like this: under setting [1], 100 % of control; under setting [2], 99 % of control; under setting [3], 99 % of control.
Turning to `CC(=O)OC1(c2ccccc2)CC(=O)C=C1c1ccccc1` (configuration not stated), the T/C is, setting by setting: under setting [12], 102 % of control; under setting [9], 91 % of control; under setting [10], 87 % of control.
Take `O=C(Nc1cccc2c1C(=O)c1ccc(Nc3cc(NC(=O)c4ccccc4)c4c(c3)C(=O)c3ccccc3C4=O)cc1C2=O)c1ccccc1`: the T/C reads like this: under setting [5], 106 % of control; under setting [1], 102 % of control; under setting [6], 102 % of control; under setting [2], 102 % of control; under setting [7], 119 % of control; under setting [3], 96 % of control.
Regarding `CCOC(=O)C(C#N)C(=N)C#N` (configuration not stated), the T/C was 93 % of control under setting [10], 89 % of control under setting [11] and 110 % of control under setting [13].
As for `CS(=O)(=O)OCC(=O)C(=O)COS(C)(=O)=O`, the T/C is 91 % of control (endpoint: mean survival time, dose: 25.0 mg/kg/injection, schedule: Q01DX001 (ip), vehicle: saline); 94 % of control (endpoint: mean survival time, dose: 50.0 mg/kg/injection, schedule: Q01DX001 (ip), vehicle: saline); 96 % of control and 103 % of control (endpoint: mean survival time, dose: 100.0 mg/kg/injection, schedule: Q01DX001 (ip), vehicle: saline).
For `OC1CCCCC12CC2` (configuration not stated), the T/C under setting [1] was 102 % of control, the T/C under setting [2] was 104 % of control and the T/C under setting [3] was 113 % of control.
